Laboratory results as given in publication PMC7041945, “Misfolded proteins bind and activate death receptor 5 to trigger apoptosis during unresolved endoplasmic reticulum stress” (eLife, 2020).

What was measured:
[1] = test system: CHOP, BiP, and DR5 mRNA in HCT116 cells; experiment: qPCR of UPR target transcripts (CHOP, BiP, DR5); type: cell-based, Homo sapiens
Method: Cells were grown in 6-well plates and harvested with 0.5 ml of TRIzol reagent (Life Technologies) per manufacturer’s protocol to extract RNA. For cDNA synthesis, 500 ng of total RNA was reverse transcribed with 2 μl of the SuperScript VILO master mix (Life Technologies # 11755050) in a total reaction volume of 10 μl following the manufacturer’s protocol for reaction temperature and duration. The reverse transcription product was diluted to 200 μl with 10 mM Tris-HCl pH 8.2 and used at 1:100 dilution for subsequent RT-PCR reactions.
PCR samples were prepared as described by manufacturer’s protocols from iQ SYBR Green Supermix (BioRad #17088800).
For each experiment, qRT-PCR reactions were set up in triplicate and run using a CFX96 Real Time System (Bio-Rad). Quantitation cycles were determined with CFX Manager 3.0 software (Bio-Rad) and then normalized to GAPDH as an internal control.

GAPDH = experiment: qPCR of GAPDH (reference transcript); type: cell-based; settings: 24 hr, Rep 2
[2] = 24 hr, Rep 2, relative to empty traffo, mean of 3 replicates
[3] = 24 hr, Rep 2, relative to empty traffo, replicate 1
[4] = 24 hr, Rep 2, relative to empty traffo, replicate 2
[5] = 24 hr, Rep 2, relative to empty traffo, replicate 3
[6] = HCT116, 100 nM for 24 hours, avg., norm to GAPDH
[7] = HCT116, 100 nM for 24 hours, replicate 1
[8] = HCT116, 100 nM for 24 hours, replicate 2
[9] = HCT116, 100 nM for 24 hours, replicate 3
[10] = HCT116, 100 nM for 24 hours, vs GAPDH, replicate 1
[11] = HCT116, 100 nM for 24 hours, vs GAPDH, replicate 2
[12] = HCT116, 100 nM for 24 hours, vs GAPDH, replicate 3
[13] = HCT116, 100 nM Tg for 24 hours, mean of 3 replicates
[14] = HCT116, 100 nM Tg for 24 hours, replicate 1
[15] = HCT116, 100 nM Tg for 24 hours, replicate 2
[16] = HCT116, 100 nM Tg for 24 hours, replicate 3
[17] = qPCR Rep 2, WT MPZ GFP 1000 ng, or empty traffo + Tg, mean of 3
[18] = qPCR Rep 2, WT MPZ GFP 1000 ng, or empty traffo + Tg, replicate 1
[19] = qPCR Rep 2, WT MPZ GFP 1000 ng, or empty traffo + Tg, replicate 2
[20] = qPCR Rep 2, WT MPZ GFP 1000 ng, or empty traffo + Tg, replicate 3
[21] = qPCR Rep 2, WT MPZ GFP 1000 ng, or empty traffo + Tg, vs avg GAPDH, replicate 1
[22] = qPCR Rep 2, WT MPZ GFP 1000 ng, or empty traffo + Tg, vs avg GAPDH, replicate 2
[23] = qPCR Rep 2, WT MPZ GFP 1000 ng, or empty traffo + Tg, vs avg GAPDH, replicate 3

C/C=C(/C)C(=O)O[C@H]1C(C)=C2[C@H]([C@@H]1OC(=O)CCCCCCC)[C@@](C)(OC(C)=O)C[C@H](OC(=O)CCC)[C@@]1(O)[C@H]2OC(=O)[C@@]1(C)O [thapsigargin, reference compound]
avg. fold induction CHOP [1, 2]: 2.825 | avg. fold induction DR5 total [1, 2]: 2.175 | fold induction CHOP [1, 3]: 2.975 | fold induction DR5 total [1, 3]: 2.222 | fold induction CHOP [1, 4]: 2.927 | fold induction DR5 total [1, 4]: 2.286 | fold induction CHOP [1, 5]: 2.573 | fold induction DR5 total [1, 5]: 2.0182 | 2^-(deltaCq) CHOP ([1]; 24 hr, Rep 2, replicate 1): 0.03423 | 2^-(deltaCq) DR5 total ([1]; 24 hr, Rep 2, replicate 1): 0.06479 | Cq CHOP ([1]; 24 hr, Rep 2, replicate 1): 23.6206 | Cq DR5 total ([1]; 24 hr, Rep 2, replicate 1): 22.7 | Cq(sample) - avg Cq(GAPDH), CHOP ([1]; 24 hr, Rep 2, replicate 1): 4.869 | Cq(sample) - avg Cq(GAPDH), DR5 total ([1]; 24 hr, Rep 2, replicate 1): 3.948 | 2^-(deltaCq) CHOP ([1]; 24 hr, Rep 2, replicate 2): 0.03367 | 2^-(deltaCq) DR5 total ([1]; 24 hr, Rep 2, replicate 2): 0.06665 | Cq CHOP ([1]; 24 hr, Rep 2, replicate 2): 23.6444 | Cq DR5 total ([1]; 24 hr, Rep 2, replicate 2): 22.6592 | Cq(sample) - avg Cq(GAPDH), CHOP ([1]; 24 hr, Rep 2, replicate 2): 4.892 | Cq(sample) - avg Cq(GAPDH), DR5 total ([1]; 24 hr, Rep 2, replicate 2): 3.9072 | 2^-(deltaCq) CHOP ([1]; 24 hr, Rep 2, replicate 3): 0.0296 | 2^-(deltaCq) DR5 total ([1]; 24 hr, Rep 2, replicate 3): 0.05885 | Cq CHOP ([1]; 24 hr, Rep 2, replicate 3): 23.8304 | Cq DR5 total ([1]; 24 hr, Rep 2, replicate 3): 22.839 | Cq(sample) - avg Cq(GAPDH), CHOP ([1]; 24 hr, Rep 2, replicate 3): 5.078 | Cq(sample) - avg Cq(GAPDH), DR5 total ([1]; 24 hr, Rep 2, replicate 3): 4.087 | avg. fold induction relative to empty traffo, BiP [1, 6]: 12.0843 fold | avg. fold induction relative to empty traffo, CHOP [1, 6]: 7.5114 fold | avg. fold induction relative to empty traffo, DR5 total [1, 6]: 5.041 fold | fold induction relative to empty traffo, BiP [1, 7]: 11.9233 fold | fold induction relative to empty traffo, CHOP [1, 7]: 7.102 fold | fold induction relative to empty traffo, DR5 total [1, 7]: 5.4959 fold | fold induction relative to empty traffo, BiP [1, 8]: 12.5755 fold | fold induction relative to empty traffo, CHOP [1, 8]: 7.658 fold | fold induction relative to empty traffo, DR5 total [1, 8]: 4.966 fold | fold induction relative to empty traffo, BiP [1, 9]: 11.754 fold | fold induction relative to empty traffo, CHOP [1, 9]: 7.775 fold | fold induction relative to empty traffo, DR5 total [1, 9]: 4.661 fold | 2^-(deltaCq) BiP [1, 10]: 1.038 | 2^-(deltaCq) CHOP [1, 10]: 0.07495 | 2^-(deltaCq) DR5 total [1, 10]: 0.08912 | 2^-(deltaCq) BiP [1, 11]: 1.095 | 2^-(deltaCq) CHOP [1, 11]: 0.08082 | 2^-(deltaCq) DR5 total [1, 11]: 0.08052 | 2^-(deltaCq) BiP [1, 12]: 1.023 | 2^-(deltaCq) CHOP [1, 12]: 0.08206 | 2^-(deltaCq) DR5 total [1, 12]: 0.07558 | GAPDH avg. fold induction relative to empty traffo [1, 13]: 1.006 | GFP avg. fold induction relative to empty traffo [1, 13]: 0.1103 | ERO1alpha (386+387) avg. fold induction relative to empty traffo ([1]; HCT116, 100 nM Tg for 24 hours, melt curves for these primers showed two peaks, mean of 3 replicates): 0.8588 | ERO1alpha (386+387) fold induction relative to empty traffo ([1]; HCT116, 100 nM Tg for 24 hours, melt curves for these primers showed two peaks, replicate 1): 0.8482 | ERO1alpha (386+387) fold induction relative to empty traffo ([1]; HCT116, 100 nM Tg for 24 hours, melt curves for these primers showed two peaks, replicate 2): 0.8572 | ERO1alpha (386+387) fold induction relative to empty traffo ([1]; HCT116, 100 nM Tg for 24 hours, melt curves for these primers showed two peaks, replicate 3): 0.8711 | GADD34 (388+389) fold induction relative to empty traffo [1, 14]: 11.4671 | GAPDH fold induction relative to empty traffo [1, 14]: 1.083 | GFP fold induction relative to empty traffo [1, 14]: 0.1161 | GADD34 (388+389) fold induction relative to empty traffo [1, 15]: 11.4954 | GAPDH fold induction relative to empty traffo [1, 15]: 1.089 | GFP fold induction relative to empty traffo [1, 15]: 0.1176 | GADD34 (388+389) fold induction relative to empty traffo [1, 16]: 10.9924 | GAPDH fold induction relative to empty traffo [1, 16]: 0.847 | GFP fold induction relative to empty traffo [1, 16]: 0.09722 | avg. fold induction relative to WT MPZ DMSO, BiP [1, 17]: 6.727 fold | avg. fold induction relative to WT MPZ DMSO, CHOP [1, 17]: 9.899 fold | avg. fold induction relative to WT MPZ DMSO, DR5 total [1, 17]: 3.489 fold | fold induction relative to WT MPZ DMSO, BiP [1, 18]: 6.3 fold | fold induction relative to WT MPZ DMSO, CHOP [1, 18]: 10.9106 fold | fold induction relative to WT MPZ DMSO, DR5 total [1, 18]: 3.205 fold | fold induction relative to WT MPZ DMSO, BiP [1, 19]: 6.984 fold | fold induction relative to WT MPZ DMSO, CHOP [1, 19]: 9.299 fold | fold induction relative to WT MPZ DMSO, DR5 total [1, 19]: 3.841 fold | fold induction relative to WT MPZ DMSO, BiP [1, 20]: 6.897 fold | fold induction relative to WT MPZ DMSO, CHOP [1, 20]: 9.4871 fold | fold induction relative to WT MPZ DMSO, DR5 total [1, 20]: 3.4208 fold | 2^-(deltaCq) BiP [1, 21]: 1.043 | 2^-(deltaCq) CHOP [1, 21]: 0.04115 | 2^-(deltaCq) DR5 total [1, 21]: 0.04765 | 2^-(deltaCq) BiP [1, 22]: 1.156 | 2^-(deltaCq) CHOP [1, 22]: 0.03507 | 2^-(deltaCq) DR5 total [1, 22]: 0.05711 | 2^-(deltaCq) BiP [1, 23]: 1.142 | 2^-(deltaCq) CHOP [1, 23]: 0.03578 | 2^-(deltaCq) DR5 total [1, 23]: 0.05086 | Cq GAPDH (GAPDH; mean of 3 replicates): 18.752 | avg. fold induction GAPDH (GAPDH; relative to empty traffo, mean of 3 replicates): 1.009 | fold induction GAPDH (GAPDH; relative to empty traffo, replicate 1): 0.7989 | fold induction GAPDH (GAPDH; relative to empty traffo, replicate 2): 1.157 | fold induction GAPDH (GAPDH; relative to empty traffo, replicate 3): 1.071 | 2^-(deltaCq) GAPDH (GAPDH; replicate 1): 0.8014 | Cq GAPDH (GAPDH; replicate 1): 19.0714 | Cq(sample) - avg Cq(GAPDH), GAPDH (GAPDH; replicate 1): 0.3194 | 2^-(deltaCq) GAPDH (GAPDH; replicate 2): 1.161 | Cq GAPDH (GAPDH; replicate 2): 18.5367 | Cq(sample) - avg Cq(GAPDH), GAPDH (GAPDH; replicate 2): -0.2154 | 2^-(deltaCq) GAPDH (GAPDH; replicate 3): 1.075 | Cq GAPDH (GAPDH; replicate 3): 18.648 | Cq(sample) - avg Cq(GAPDH), GAPDH (GAPDH; replicate 3): -0.104
